For this assay, the system named is Mycobacterium tuberculosis H37Rv growth inhibition, no glycerol. Kind of assay: Confirmatory growth inhibition assay, Mycobacterium tuberculosis H37Rv, absence of glycerol (AID 449764).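 For all read-outs here: growth read after 7 days of incubation.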 Conditions: for IC90: measured here: IC90 growth inhibition.

With `CCOC(=O)CSc1nsc(SCC(=O)OCC)c1C#N`, the IC50 is 11.9 µM and the IC90 worked out at 13.5 µM.
The matching figures for `Cc1nc(SCC(=O)NCC2CCCO2)c2c3c(sc2n1)CCCC3` (stereo not given): 23 µM and 25.2 µM.
For `CSc1nsc(/C=C/Nc2ccc(O)cc2C)c1C#N`, in that order: 44.5 µM and 49.6 µM.
The matching figures for `O=C(NC1CCCCC1)C(c1cccs1)N(CCCN1CCOCC1)C(=O)c1ccc(-c2ccccc2)[nH]1` (stereo not given): 51.3 µM and 86.4 µM.
As for `CCOC(=O)c1csc(-c2snnc2C)n1`, the 50% inhibitory concentration (IC50) was 28.4 µM and the IC90 is above 100 µM.
Compound `CCCCCNc1nc(N2CCCC2)c2c(c1C#N)CCN(C)C2` came in with an IC90 above 100 µM.
`CC(C)(C)c1ccc(OCCCC(=O)NC2=NCCS2)cc1`: the IC50 is 38.7 µM and the IC90 worked out at 48.9 µM.
For `COC(=O)Cn1nc(-c2ccccc2)c2cc(Cl)ccc21`, in that order: 22 µM and above 100 µM.
The matching figures for `OC(CN1CCN(c2ccccn2)CC1)Cn1c2ccccc2c2ccccc21` (stereo not given): 42 µM and 55.1 µM.
For `Cc1cc(C)n(-c2ccc(C(=O)Oc3ccc4c(c3)OCO4)cc2)n1`, in that order: 11.7 µM and above 100 µM.
As to `CCCCCc1ccc(S(=O)(=O)NCCc2ccncc2)cc1`, the IC50 is 36.5 µM and the IC90 stood at 47 µM.
The matching figures for `Oc1c(C(c2ccccc2Cl)N2CCCC2)ccc2cccnc12` (stereo not given): 31.2 µM and 37.7 µM.
The matching figures for `CN1CCN(C2=Cc3ccc(Cl)cc3Sc3ccc(F)cc32)CC1`: 25.9 µM and 35.5 µM.
The matching figures for `O=c1cc(CCl)nc(Cc2c(Cl)cccc2Cl)[nH]1`: 10.5 µM and above 100 µM.
Turning to `CCOC(=O)c1[nH]c(CN2CCN(c3ccc(OC)cc3)CC2)c(C(=O)OCC)c1C`, the IC50 was 34.1 µM and the IC90 amounted to 48.6 µM.
For `CC1CC(C)CN(C(=O)C2CCC(CNc3c(N4CCCCC4)c(=O)c3=O)CC2)C1` (stereo not given), in that order: 45.8 µM and above 100 µM.
The matching figures for `Cn1c(CNc2nc(-c3ccccc3)cs2)nnc1SCC(=O)OC1CCCCC1`: 24 µM and 27.3 µM.
The matching figures for `C(=N\Nc1nc(-c2ccccc2)cs1)/c1ccncc1`: 62.7 µM and 79.9 µM.
For `COC(=O)c1c(NC(=O)CC2SC(N)=NC2=O)sc2c1CCC(C(C)(C)C)C2` (stereo not given), the IC50 is 40.2 µM and the IC90 worked out at 64.4 µM.
The matching figures for `Cn1c(SCc2ccccc2)nc(N)c(N=O)c1=O`: 18.4 µM and 25.6 µM.
As to `CNC[C@@H](Cc1ccccc1)NC[C@@H](CC1CCCCC1)NCCCc1ccccc1`, the IC50 was 7.99 µM and the IC90 turned out to be 9.68 µM.
Turning to `Cc1c(CN(C)C)c2c(n1Cc1ccccc1)C(=O)c1ccc(Br)cc1-2`, the 50% inhibitory concentration (IC50) is 24 µM and the IC90 turned out to be 27.8 µM.
The matching figures for `CC(C)OC(=O)CSc1nc2ccccc2s1`: 22.1 µM and 36.7 µM.
The matching figures for `S=C(NCCN1CCOCC1)N/N=C/c1cccs1`: 6.31 µM and 7.16 µM.
For the compound `Fc1nc(F)c(F)c(NCCCNc2c(F)c(F)nc(F)c2F)c1F`, the IC90 was above 100 µM.
On to `CCOC(=O)CSc1ncc(OC)c(Sc2ccc(OC)cc2)n1`, for which the IC50 was 18.1 µM and the IC90 was determined as 54.3 µM.
For `[O-][n+]1c2ccccc2c2n1CCN1CCOC21c1ccc(Cl)cc1` (stereo not given), in that order: 51 µM and 79.3 µM.
For `O=C(OCC(=O)N1CCN(c2ccccc2)CC1)c1cnc(Cl)c(Cl)c1`, in that order: 27 µM and 58.1 µM.
In the case of `COc1cc(/C=C/C(=O)c2c(O)n(CCc3ccccc3)c(=O)[nH]c2=O)ccc1O`, the IC50 was 14.3 µM and the IC90 was 21.8 µM.
For the compound `CCCn1c(=N)n(CC(=O)c2ccc(OCC(=O)OC)cc2)c2ccccc21`, the IC50 is 20.1 µM and the IC90 was 35.9 µM.
For the compound `O=c1c2ccccc2nc(/C=C/c2ccccc2)n1-c1ccc(O)cc1`, the IC90 is above 50 µM.
As to `CO/N=C(\Cn1ncc(N2CCCC2)c(Cl)c1=O)c1ccc(Cl)cc1`, the IC50 is 23.7 µM and the IC90 was found to be 26.9 µM.
For `CN1C2CCC1/C(=C/c1ccccn1)C(=O)/C2=C\c1ccccn1`, in that order: 23.4 µM and 26.8 µM.
The matching figures for `Cc1ccc(-c2nc3c(c(=O)c4ccccc4n3C)c(=O)n2Cc2ccco2)cc1`: 25.1 µM and 40.2 µM.
For `Cc1cccc(C(=O)OCC(=O)N2CCc3ccccc3C2)c1O`, in that order: 24.8 µM and above 25 µM.
With `NC(=S)N=Nc1ccc(NN=C(N)N)cc1`, the concentration for half-maximal inhibition (IC50) was 19.3 µM and the IC90 came out at 27.6 µM.
For `O=C(Nc1ccc(OC(F)(F)F)cc1)c1ccc2c(c1)no[n+]2[O-]`, in that order: 0.24 µM and 0.32 µM.
The matching figures for `O=C(C=C=Nc1ccccc1)C(=O)N=C=Cc1ccccc1`: 12.4 µM and 20.5 µM.
`COc1ccc(-c2cc(-c3ccccc3)c(C#N)c(S(C)=O)n2)cc1` (stereo not given): the IC50 was 91.8 µM and the IC90 was above 100 µM.
With `COc1ccc(C(=O)/C=C/c2cc(OC)c(O)c(OC)c2)c(F)c1`, the IC50 is 60.7 µM and the IC90 is above 100 µM.
Turning to `CC1(C)CC(=O)C2=C(C1)NC(Nc1nc3ccccc3o1)=NC2c1ccccn1` (stereo not given), the IC50 is 2.99 µM and the IC90 stood at 6.27 µM.
Regarding `CCCCN(C)C(=O)Cc1c(OC)ccc2cc(Br)ccc12`, the IC50 is 24.4 µM and the IC90 is 33.5 µM.
As for `CCCC[C@@H](CN[C@H](C)CNC)NCC1CCC(C(C)(C)C)CC1` (stereo not given in full), the IC50 is 23.2 µM and the IC90 was determined as 26.4 µM.
For `C/C(=N\NC(=O)c1nnn(-c2nonc2N)c1CN(C)c1ccccc1)c1ccccn1`, in that order: 11.9 µM and 13.6 µM.
The matching figures for `CC1(C)CC(NC(=O)c2ccc(Cl)c(S(=O)(=O)N(Cc3ccccc3)c3ccccc3)c2)CC(C)(C)N1`: 28.3 µM and 43.4 µM.
The matching figures for `COc1cccc(NC(=O)C2CCN(Cc3cnn(-c4ccccc4)c3-n3cccc3)CC2)c1`: 54.9 µM and 90 µM.
Regarding `CC1(C)Cc2c(C#N)c(N3CCN(C(=O)c4ccccc4)CC3)nc(Cc3ccccc3)c2CO1`, the IC50 was 31.4 µM and the IC90 was found to be 46.9 µM.
`COc1ccccc1C1CC(c2c(-c3ccccc3)c3cc(Cl)ccc3[nH]c2=O)=NN1S(C)(=O)=O` (stereo not given): the IC90 was above 100 µM.
`OCC1(Cc2cccc(Cl)c2)CCCN(Cc2ccc3cc(F)ccc3n2)C1` (stereo not given): the IC50 was 38.2 µM and the IC90 amounted to 54.6 µM.
For `COC(=O)C1C(O)C(C)C(O)C(C)/C=C\C=C(/C)C(=O)Nc2c(C)c(OC(C)=O)c3c(c2O)C(=O)C(C)=C2OCOC(=C23)/C(C)=C/C(C)(O)C(O)C(C)C1O` (stereo not given), in that order: below 0.2 µM and below 0.2 µM.
The matching figures for `Cc1nn(Cc2ccccc2)c(C)c1NC(=O)c1cc2nc(-c3ccco3)cc(C(F)(F)F)n2n1`: 45.8 µM and 49.6 µM.
For `Cc1nc(SCC(=O)NC2CCCCC2)[nH]c(=O)c1C`, in that order: below 0.2 µM and 0.57 µM.
Turning to `CC1=C(/C=C/C(C)=C/C=C/C(C)=C/C(=O)Nc2ccc(O)cc2)C(C)(C)CCC1`, the IC50 is 44.2 µM and the IC90 worked out at 64.7 µM.
The matching figures for `Cc1cc2c(N=O)c(NO)ccc2[nH]1`: 11.9 µM and 18.2 µM.
On to `O=C(Nc1ccc(Oc2cccc(C(F)(F)F)c2)nc1)c1cccs1`, for which the IC50 is 85.3 µM and the IC90 is above 100 µM.
For `O=C(C[n+]1ccc(C(=O)N/N=C/c2ccc(O)cc2)cc1)c1ccccc1`, in that order: 9.55 µM and above 100 µM.
As to `Cc1nn(CCc2nn[nH]n2)c2nc(-c3ccc(Br)cc3)cc(C(F)(F)F)c12`, the IC50 is 8.29 µM and the IC90 was 16.8 µM.
The matching figures for `Cc1cccc(CNc2ncnc3ccc(-c4ccc5c(c4)OCCO5)cc23)c1`: 10.1 µM and 12.7 µM.
Take `O=C(NCC1CCN(c2ccc(S(=O)(=O)N3CCOCC3)cc2)CC1)c1ccc(Cl)cc1`: the IC50 is 40.6 µM and the IC90 was found to be 57 µM.
The matching figures for `Cn1c(NCC(O)c2ccccc2)nc2c1c(=O)n(Cc1ccc(Cl)c(Cl)c1)c(=O)n2C` (stereo not given): 77.8 µM and above 100 µM.
For `Cc1cc(OC(=O)c2cccs2)c2c3c(c(=O)oc2c1)CCCC3`, in that order: 4.18 µM and 8.9 µM.
Consider `CCc1ccc(N=Nc2ccc(O)c3[nH]cnc23)cc1`, for which the IC50 is 40.7 µM and the IC90 is above 100 µM.
Consider `CC(C)c1ccc(N2C(=O)NC(=O)/C(=C\C=C\c3ccco3)C2=O)cc1`, for which the IC50 was 44.5 µM and the IC90 was 49.7 µM.
For `CCOc1ccc(-c2csc(/C(C#N)=C\c3ccc(O)c([N+](=O)[O-])c3)n2)cc1`, in that order: 16.7 µM and above 100 µM.
On to `C=CCN(C(=O)CSc1nc2c(sc3ccccc32)c(=O)n1CCN(CC)CC)c1ccccc1`, for which the IC50 is 30.8 µM and the IC90 came to 38.8 µM.
The matching figures for `C=CCNCC(=O)N1N=C(c2ccc3ccccc3c2)CC1c1ccc(OC)cc1` (stereo not given): 18.4 µM and 23.3 µM.
The matching figures for `COc1ccc(CN(CCC(c2ccccc2)c2ccc(OC(C)C)cc2)C(=O)CCl)cc1OC` (stereo not given): 15.8 µM and 23.5 µM.
For `CCN1CCN(CCCNC(=O)c2ccc(/C=C3/Oc4ccccc4N(Cc4cccc(C)c4)C3=O)cc2)CC1`, in that order: 45.2 µM and 48.1 µM.
Turning to `Cc1ccccc1N1CCN(c2ncnc3c2cnn3Cc2ccc(Cl)cc2)CC1`, the IC50 is 56.4 µM and the IC90 was above 100 µM.
For the compound `Cc1ccc(/C=N/NC(=S)NC(C)C)o1`, the IC50 was 42.4 µM and the IC90 came out at 46.7 µM.
The matching figures for `COC(=O)c1cc(/C=C/c2ccccc2)on1`: 29.3 µM and above 100 µM.
The matching figures for `CCOC(=O)c1ccc2c(c1)C(=O)N(C1CCCCC1)C2=O`: 85 µM and above 100 µM.

For orientation: IC50 means the concentration that inhibits the measured activity by half. Broadly, the IC90 is the point of the concentration-response curve where the effect stands at 90%. A high value points to weaker potency.
